Measurements as given in patent US20120058133A1, “INHIBITION OF TRNA SYNTHETASES AND THERAPEUTIC APPLICATIONS THEREOF” (President and Fellows of Harvard College, priority 2009, published 2012).

What was measured:
[1] = target: T1, prolyl tRNA synthetase (Oryctolagus cuniculus, UniProt G1T2I4); assay: tRNA charging in RRL (14C Pro or 35S Met incorporation into tRNA); assay type: biochemical, rabbit
T1 construct: from tissue; host or cells: rabbit reticulocyte lysate (RRL)
Description: FIG. 23D is a graph showing that HF inhibits prolyl tRNA synthetase activity in RRL. ^14C Pro or ^35S Met were incubated with RRL and total bovine tRNA in the presence or absence of HF or MAZ1310, and incorporation of radioactivity into tRNA was measured by liquid scintillation counting. Error bars reflect standard deviation of triplicate determinations. Data are representative of two separate experiments.
(§1) The effects of HF on prolyl-tRNA charging was examined. RRL were supplemented with ^14C-Pro or ^35S-Met in the presence or absence of HF, and total tRNA was isolated (FIG. 23D).

[2] = tested on: EPRS; assay: Prolyl-tRNA charging by purified EPRS; assay type: biochemical, rat
Description: FIG. 23E is a graph showing that HF inhibits purified EPRS activity. EPRS was purified from rat liver and assayed for prolyl-tRNA charging activity as previously described (Ting, S. M., Bogner, P. & Dignam, J. D. Isolation of prolyl-tRNA synthetase as a free form and as a form associated with glutamyl-tRNA synthetase. J Biol Chem 267, 17701-17709, (1992)). Data are representative of three separate experiments.
as §1

[3] = tested on: murine CD4+ CD25− T cells, CD8+ T cells, B cells; conditions: high concentrations; PCT/US08/09774; cited from earlier work
[4] = tested on: SV-MES mesangial cells; assay: AAR activation in SV-MES mesangial (fibroblastic) cells; assay type: cell-based; conditions: 2 hours
Description: FIG. 11. HF induces a stress response in fibroblasts. SV-MES mesangial cells were stimulated for 2 hours with DMSO, 20 nM MAZ1310, or 20 nM HF. Whole cell lysates were analyzed for expression of phosphorylated or total eIF2α by western blotting.
Duplicate cell samples are shown. […] Activated GCN2 phosphorylates eif2alpha at Ser 51; therefore, this is an expected downstream outcome of AAR activation.

[5] = tested on: primary human memory T cells (CD4+ CD45RO+); assay: IL-17 and IFNγ expression by human memory T cells co-cultured with CD14+ monocytes; assay type: cell-based; conditions: 100 nM HF, 6 days
Description: FIG. 2F is a set of FACS analyses of purified primary human memory T cells (CD4^+ CD45RO^+) activated in co-culture with CD14^+ monocytes and treated with DMSO, 100 nM HF or 100 nM MAZ1310. T cells were expanded for 6 days and intracellular cytokine expression was determined following restimulation with PMA plus ionomycin.
Primary murine T and B cells were purified by cell sorting. CD4^+ CD25^− T cells were positively selected using CD4 dynabeads and detachabeads (Dynal—Oslo, Norway) per manufacturers instructions followed by nTreg depletion using a CD25 microbead kit (Miltenyi biotech—Auburn, Calif.). Naïve (CD4^+ CD62Lhi CD44lo Foxp3gfp- or CD4^+ CD62Lhi CD44lo CD25^−) T cells were purified from Foxp3gfp or Foxp3ko mice, respectively, by FACS sorting. CD8^+ T cells or B cells were isolated from CD4^− fractions using CD8 negative isolation kit (Dynal) or CD43 negative isolation kit (Miltenyi biotech), respectively. Resting human CD4^+ T cells were isolated from PBMC of healthy human donors using Dynal CD4 Positive Isolation Kit (Invitrogen—Carlsbad, Calif.) as previously described (Sundrud et al., Blood 106:3440, 2005). CD4^+ cells were further purified to obtain memory T cells by staining with PE-conjugated anti-human CD45RO-PE antibodies (BD Biosciences), and sorting on a FACSAria cytometer (BD Biosciences). Following purification, cells were greater than 99% CD4^+ CD45RO^+. […]

T1 sequence (G1T2I4 1-1447): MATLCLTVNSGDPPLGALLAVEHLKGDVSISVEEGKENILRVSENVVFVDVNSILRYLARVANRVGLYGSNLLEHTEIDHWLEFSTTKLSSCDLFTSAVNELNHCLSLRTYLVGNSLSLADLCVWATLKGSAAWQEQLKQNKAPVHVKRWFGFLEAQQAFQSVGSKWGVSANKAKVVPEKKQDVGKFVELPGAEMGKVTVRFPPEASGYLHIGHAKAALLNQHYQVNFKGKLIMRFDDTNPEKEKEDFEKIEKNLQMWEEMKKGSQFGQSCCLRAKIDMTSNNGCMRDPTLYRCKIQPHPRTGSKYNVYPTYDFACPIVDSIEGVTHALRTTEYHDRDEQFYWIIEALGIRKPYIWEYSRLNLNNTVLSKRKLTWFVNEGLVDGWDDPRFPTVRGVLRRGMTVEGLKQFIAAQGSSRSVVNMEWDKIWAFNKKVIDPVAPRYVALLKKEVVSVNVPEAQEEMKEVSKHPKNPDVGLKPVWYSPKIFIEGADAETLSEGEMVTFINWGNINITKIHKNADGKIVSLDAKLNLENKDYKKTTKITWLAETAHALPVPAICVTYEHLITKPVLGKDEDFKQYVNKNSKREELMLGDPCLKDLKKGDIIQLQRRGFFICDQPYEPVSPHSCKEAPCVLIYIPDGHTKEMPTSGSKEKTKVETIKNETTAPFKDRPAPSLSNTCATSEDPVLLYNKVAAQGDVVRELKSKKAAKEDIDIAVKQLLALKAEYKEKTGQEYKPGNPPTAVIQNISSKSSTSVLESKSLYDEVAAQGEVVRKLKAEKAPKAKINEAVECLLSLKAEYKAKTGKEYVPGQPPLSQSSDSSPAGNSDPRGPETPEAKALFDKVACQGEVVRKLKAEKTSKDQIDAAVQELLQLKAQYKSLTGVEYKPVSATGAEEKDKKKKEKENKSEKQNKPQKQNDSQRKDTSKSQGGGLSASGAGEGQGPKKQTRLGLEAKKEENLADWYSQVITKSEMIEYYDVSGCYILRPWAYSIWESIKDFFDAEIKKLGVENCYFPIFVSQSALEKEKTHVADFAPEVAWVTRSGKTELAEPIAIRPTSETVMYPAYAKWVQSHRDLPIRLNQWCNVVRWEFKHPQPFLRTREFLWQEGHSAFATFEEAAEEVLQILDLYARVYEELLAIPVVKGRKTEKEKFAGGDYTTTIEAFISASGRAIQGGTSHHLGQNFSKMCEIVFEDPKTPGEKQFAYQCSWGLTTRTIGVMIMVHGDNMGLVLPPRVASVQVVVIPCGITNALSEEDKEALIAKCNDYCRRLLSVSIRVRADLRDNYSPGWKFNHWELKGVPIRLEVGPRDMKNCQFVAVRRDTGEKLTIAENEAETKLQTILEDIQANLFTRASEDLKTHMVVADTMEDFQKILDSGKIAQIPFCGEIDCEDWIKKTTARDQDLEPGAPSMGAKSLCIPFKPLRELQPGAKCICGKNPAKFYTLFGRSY

Compound: O=C(CC1NCCCC1O)Cn1cnc2cc(Br)c(Cl)cc2c1=O (racemic) [HF, halofuginone]
- incorporation of 14C-Pro into tRNA [1]: inhibited
- reconstituted prolyl-tRNA charging reaction with purified EPRS [2]: inhibited this reaction
- concentrations generally inhibiting CD4+ T cell, CD8+ T cell, and B220+ B cell activation [3]: 20 to 40 nM
- eIF2α phosphorylation in cultured fibroblasts ([4]; 20 nM HF): increased eIF2α phosphorylation
- GCN2 Thr898 phosphorylation ([4]; 20 nM): activation of GCN2 phosphorylation
- IFNγ expression in human T cells [5]: essentially unaffected
- percentage of human T cells expressing IL-17 and amount of IL-17 produced [5]: greatly reduced
